From patent publication US20240373844A1, “PYROGLUTAMIC ACID AS AN HERBICIDE SAFENER AND METHODS OF USE THEREOF” (Verdesian Life Sciences U.S., LLC, priority 2021, published 2024) come the findings set out here.

Structures are written as SMILES.

The test deals with corn (Zea mays) plants. Kind of test: Corn plants treated with glyphosate with and without PGA soil drench: dry biomass and leaf area (Experiment 1). It is filed as in vivo. Particulars: 7 days after planting. The protocol: Corn seeds were sown in standard 10 cm diameter pots in peat-based media (Fafard #2/Sunshine Mix #8 soilless media: 75% Canadian sphagnum peat moss, 20% perlite, 5% vermiculite, trace: dolomitic limestone, wetting agent, silicon). Plants were grown under the following environmental conditions: • Temperature: 30° C. day/23° C. • Relative humidity: 60-70% • Photoperiod: 16 hours light/8 hours dark • Light intensity: 800-1000 μMols/m^2/s Treatments were administered 5 days after planting. In experiment 1, glyphosate was applied at 1%, 10%, and 100% of label rate, with and without PGA (0.137 g/L), as outlined in the table below. In Experiment 2, Bayer All-in-One® herbicide was applied at 10% and 100% of the label rate, with and without PGA (0.137 g/L). In both treatments, control plants received water. In both experiments, herbicide was applied as a 0.5 mL droplet by pipet on the 1st fully expanded leaf; PGA was applied as a 50 mL soil drench. Plants were grown in a completely randomized design for an additional 2 days to allow the treatments to take effect. At 7 days after planting, plants were photographed, and destructively harvested for leaf area and dry biomass.

Turning to `O=C(O)CNCP(=O)(O)O` [Glyphosate, glyphosate], the “Avg(DryWt)” value is recorded as 0.12 g (1% Label Rate Glyphosate, 0.0 g/L PGA); 0.06 g (10% Label Rate Glyphosate, 0.0 g/L PGA); 0.05 g (100% Label Rate Glyphosate, 0.0 g/L PGA).
For the compound `O=C1CC[C@@H](C(=O)O)N1` [PGA, pyroglutamic acid], the “Avg(DryWt)” value is 0.10 g (0.137 g/L PGA drench with 1% Label Rate Glyphosate); 0.10 g (0.137 g/L PGA drench with 10% Label Rate Glyphosate); 0.15 g (0.137 g/L PGA drench, 0 Glyphosate).
